Tests used:
[1] = calcein dye release assay (lytic potential); format: biochemical; conditions: 5-100 μM, 1-20 mol % ligand; LUVs containing 120 mM calcein
Experimental: Calix[4]arene tetrabutylamide 2 may transport ions across LUVs by inducing membrane defects, by uniport of ions, or via cotransport of ion pairs ([…], M^− or OH^−/A^− antiport and H^+/A^− or M^+/OH^− symport mechanisms are possible). The lytic potential of 2 was evaluated using a dye release assay. The self-quenching dye calcein loses 95% of its fluorescence emission at concentrations above 100 mM. 2.
EYPC Calcein-Containing Vesicles: Calcein (224.1 mg, 0.36 mmol) was suspended in 3 mL of phosphate buffer (100 mM NaCl, 10 mM sodium phosphate, pH 6.4). The pH of the solution was adjusted to 6.4 with a 7.4 M NaOH-containing phosphate buffer, at which point all the calcein was dissolved to give a 120 mM solution of the dye. The molality of the extravesicular buffer was adjusted to equal that of the calcein-containing solution with 1 m NaCl. Osmomolality was determined by VPO. A thin film was prepared from 60 mg of EYPC ([…]) as described above. The lipid film was hydrated in 1.2 mL of the calcein buffer. During hydration, the suspension was submitted to five freeze-thaw cycles (dry ice in acetone, water at room temperature) and then submitted to high-pressure extrusion (2) extrusions through a 0.1 μm polycarbonate membrane afforded LUVs with an average diameter of 100 nm). […]

[2] = sodium picrate extraction in CDCl3 monitored by 1H NMR; format: binding
Experimental: FIG. 9 ^1H NMR spectrum (400 MHz, CDCl3, 22° C.) of (A) calixarene octabutylamide (5 mM) in CDCl3, (B) the same compound after addition of 1 equiv. of NaPic. (C) the same compound after addition of 2 equiv. of NaPic.
The secondary amide NH and the core aromatic ring framework, in this case the calix[4]arene framework, are essential for the HCl transport activity of 2. Calix[4]arene octabutylamide 3 was used as a negative control for tetrabutylamide 2, as the lack of amide NH protons in 3 would preclude Cl^− binding. Instead, 3 should be a cation ionophore, much like tetrakis(diethylcarbamoylmethoxy)-p-tert-butylcalix[4]arene-1,3-alt that coordinates cations in the solid-state and solution. To confirm that 3 binds Na^+, sodium picrate extraction in CDCl3 was monitored by ^1H NMR spectroscopy. Complexation of the salt by 3 was evident. Two distinct complexes were formed, corresponding to a 1:1 and a 2:1 Na^+:3 stoichiometry. The 1:1 complex was generated by adding 1 equiv of solid sodium picrate to a solution of 3. Binding this Na^+ led to a symmetry loss for 3, indicated by doubling of the ^1H NMR peaks. […] In contrast, sodium picrate extraction by calix[4]arene tetrabutylamide 2 was not detected by ^1H NMR spectroscopy.

[3] = 1H NMR binding experiment in CDCl3, HCl extraction
Experimental: FIG. 7 illustrates a series of […] spectra (400 mHz, CDCl3, 22° C.) of calixarene tetrabutylamide in the presence of different species: (A) the compound alone (5 mm); (B) the compound with 1 equiv. of Bu4 NCl; (C) the compound after washing CDCl3 solution of the compound with an aqueous solution of 0.5 m HCl; (D) after washing CDCl3 solution of the compound with an aqueous solution of 0.5 M H2SO4.
To obtain evidence for Cl^− binding by 2, ^1H NMR experiments were run in CDCl3 using n-Bu4-NCl and HCl as Cl^− sources. Anion receptors usually show chemical shift perturbation upon anion complexation, particularly for amide NH protons that hydrogen bond to the anion. […] Calix[4]arene tetrabutylamide 2 does, however, bind HCl. Thus, shaking a CDCl3 solution of 2 with aqueous HCl led to disappearance of the amide NH proton and a significant upfield shift of the […] protons (FIG. 4c).

Q: For `CCCCNC(=O)COc1c2cccc1Cc1cccc(c1OCC(=O)NCCCC)Cc1cccc(c1OCC(=O)NCCCC)Cc1cccc(c1OCC(=O)NCCCC)C2` [calix[4]arene tetrabutylamide 2, Calix[4]arene tetrabutylamide], which “calcein fluorescence (membrane defects)” value [1] is on record?
A: The value was “no fluorescence enhancement”.

Q: And the sodium picrate extraction [2]?
A: Its sodium picrate extraction is “not detected”.

Q: What about the HCl binding [3] of the same compound?
A: Its HCl binding is “binds HCl”.

Reference: patent publication US7355074B2, “Compounds having aromatic rings and side-chain amide-functionality and a method for transporting monovalent anions across biological membranes using the same” (The University of Maryland, priority 2003, dated 2008)
